Patent US20090288611A1, “Formula and method for treating water in fish tanks” (priority 2008, published 2009)

Test system: captive live fish
Assay: Holding captive live fish in water treated with isoeugenol
Format: in vivo
Text: The first key ingredient of the chemical mixture for treating the water in fish tanks of the present invention is isoeugenol (2-Methoxy-4-propenylphenol; 4-hydroxy-3-methoxy-1-propenylbenzene; 4-propenylguaiacol) C10H1202. Isoeugenol is an essential oil derived from oil of clove that has anesthetizing capabilities for fish in water. In the preferred embodiment, the formula for maintaining the life of fish contains about 43 ppm±10% of isoeugenol to slow the metabolism of captive live fish.
The benefits of treating the water in which fish are held or transported with isoeugenol are threefold. First, the metabolism of the fish is slowed and therefore the fish require less oxygen. The result is that more live fish may be held in smaller volumes of water. Also, live fish with a slower metabolism are easier to handle and fewer injuries are sustained by the fish.

[1] = overdoses up to 10 times the preferred amount of isoeugenol

In the case of `CC=Cc1ccc(O)c(OC)c1` [isoeugenol, 2-Methoxy-4-propenylphenol], the “effect on fish activity (sedation)” value (dosage rate of about 43 ppm±10% isoeugenol in the water) is reported as “slow down fish activity sufficiently to allow handling of the live fish”, the “coagulation of hook wounds” value (fish held in water treated with isoeugenol, metabolism calmed) is reported as “hook wounds appear to coagulate faster” and the “fish behaviour at overdose (equilibrium)” value [1] is reported as “some fish may still roll over and lose equilibrium”. The “harm to fish at overdose” value [1] was “not harmful to the fish”.
